# Reference: patent US10624346B2, “Herbicidal composition and method for controlling weeds” (Sumitomo Chemical Company, Limited, priority 2016, dated 2020)
# Columns and labels:
# Echinochloa crus-galli = assay: Greenhouse pot test, post-emergence spray, herbicidal effect (Examples 202, 203); assay type: in vivo; settings: sprayed at 2-3 leaf stage, one week
# Text: (§1) A plastic pot was filled with a commercially-available culture soil, and thereto inubie (common barnyardgrass; Echinochloa crus-galli) or akinoenokorogusa (giant foxtail; […] When the weeds grew to two to three leaf stage, a spray liquid of the compound X, a spray liquid of dicamba diglycolamine salt, or a spray liquid of the present composition was uniformly sprayed to the whole plants so that the application rate might be a predetermined value. The spray liquid of the present composition was prepared by mixing the spray liquid of the compound X with the spray liquid of dicamba diglycolamine salt. The spray liquid of the compound X was prepared by mixing a predetermined amount of the formulation X with deionized water. […] After applying the spray liquid, the plants were placed in a greenhouse for a week. […] A plastic pot was filled with a commercially-available culture soil, and thereto inubie (common barnyardgrass; Echinochloa crus-galli) or akinoenokorogusa (giant foxtail; […] The spray liquid of the compound X was prepared by mixing a predetermined amount of the formulation X with deionized water. […] After applying the spray liquid, the plants were placed in a greenhouse for a week.
# Setaria faberi = assay: as above; assay type: in vivo; settings: sprayed at 2-3 leaf stage, one week
# Text: as §1
# [1] = Compound X 5 g/ha alone, scale 0 (no effect) to 100 (completely dead)
# [2] = Compound X 10 g/ha alone, scale 0-100
# [3] = dicamba salt 50 g/ha alone, scale 0-100
# [4] = dicamba salt 500 g/ha alone, scale 0-100
SMILES,Herbicidal effect on Echinochloa crus-galli (observed value) (Echinochloa crus-galli; [1]),Herbicidal effect on Echinochloa crus-galli (observed value) (Echinochloa crus-galli; [2]),Herbicidal effect on Setaria faberi (observed value) (Setaria faberi; [1]),Herbicidal effect on Setaria faberi (observed value) (Setaria faberi; [2]),Herbicidal effect on Echinochloa crus-galli (observed value) (Echinochloa crus-galli; [3]),Herbicidal effect on Echinochloa crus-galli (observed value) (Echinochloa crus-galli; [4]),Herbicidal effect on Setaria faberi (observed value) (Setaria faberi; [3]),Herbicidal effect on Setaria faberi (observed value) (Setaria faberi; [4])
"CCOC(=O)COc1ncccc1Oc1cc(-n2c(=O)cc(C(F)(F)F)n(C)c2=O)c(F)cc1Cl [Compound X, ethyl [3-[2-chloro-4-fluoro-5-(1-methyl-6-trifluoromethyl-2,4-dioxo-1,2,3,4-tetrahydropyrimidin-3-yl)phenoxy]-2-pyridyloxy]acetate]",20,35,30,45,,,,
COc1c(Cl)ccc(Cl)c1C(=O)O.NCCOCCO [dicamba diglycolamine salt],,,,,0,10,0,0
"CN(CCCN)CCCN.COc1c(Cl)ccc(Cl)c1C(=O)O [dicamba BAPMA salt, dicamba N,N-bis(3-aminopropyl)methylamine salt]",,,,,0,5,0,10
